From PubChem BioAssay AID248 (DTP/NCI, 2004)
Inconclusive results and toxic doses are left out.

System: L1210 leukemia ip in BDF1 mice, survival T/C
Test: NCI In Vivo Anticancer Drug Screen. Data for tumor model L1210 Leukemia (intraperitoneal) in B6D2F1 (BDF1) mice
Conditions: endpoint: mean survival time, higher = longer survival
In short: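 Transplanted-tumor mice were given test agent; controls received vehicle only. Survival readings from the two groups were divided (treated over control).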

[1] = dose: 100.0 mg/kg/injection, schedule: Q01DX001 (ip), vehicle: saline
[2] = dose: 200.0 mg/kg/injection, schedule: Q01DX001 (ip), vehicle: saline
[3] = dose: 100.0 mg/kg/injection, schedule: Q01DX001 (ip), vehicle: saline with Tween-80
[4] = dose: 200.0 mg/kg/injection, schedule: Q01DX001 (ip), vehicle: carboxymethylcellulose (CMC)
[5] = dose: 100.0 mg/kg/injection, schedule: Q01DX009 (ip), vehicle: saline with Tween-80
[6] = dose: 200.0 mg/kg/injection, schedule: Q01DX009 (ip), vehicle: saline with Tween-80
[7] = dose: 100.0 mg/kg/injection, schedule: Q04DX003 (ip), vehicle: Klucel (hydroxypropylcellulose) (HPC)
[8] = dose: 200.0 mg/kg/injection, schedule: Q04DX003 (ip), vehicle: Klucel (hydroxypropylcellulose) (HPC)
[9] = dose: 100.0 mg/kg/injection, schedule: Q04DX003 (ip), vehicle: saline
[10] = dose: 200.0 mg/kg/injection, schedule: Q04DX003 (ip), vehicle: saline
[11] = dose: 400.0 mg/kg/injection, schedule: Q04DX003 (ip), vehicle: saline
[12] = dose: 100.0 mg/kg/injection, schedule: Q01DX009 (ip), vehicle: Klucel (hydroxypropylcellulose) (HPC)
[13] = dose: 200.0 mg/kg/injection, schedule: Q01DX009 (ip), vehicle: Klucel (hydroxypropylcellulose) (HPC)
[14] = dose: 400.0 mg/kg/injection, schedule: Q01DX009 (ip), vehicle: Klucel (hydroxypropylcellulose) (HPC)
[15] = dose: 400.0 mg/kg/injection, schedule: Q04DX003 (ip), vehicle: Klucel (hydroxypropylcellulose) (HPC)

`CC(=O)SCCNCCNC1CC2CCC1C2` (configuration not stated) was tested, and the T/C (dose: 1.25 mg/kg/injection, schedule: Q01DX009 (ip), vehicle: saline) was 94 % of control, the T/C (dose: 2.5 mg/kg/injection, schedule: Q01DX009 (ip), vehicle: saline) was 97 % of control and the T/C (dose: 5.0 mg/kg/injection, schedule: Q01DX009 (ip), vehicle: saline) was 100 % of control. For the same molecule, the T/C (dose: 7.2 mg/kg/injection, schedule: Q01DX009 (ip), vehicle: saline) was 94 % of control, the T/C (dose: 10.0 mg/kg/injection, schedule: Q01DX001 (ip), vehicle: saline) was 92 % of control and the T/C (dose: 10.0 mg/kg/injection, schedule: Q04DX003 (ip), vehicle: saline) was 99 % of control. The T/C (dose: 11.0 mg/kg/injection, schedule: Q01DX009 (ip), vehicle: saline) was 92 % of control, the T/C (dose: 16.5 mg/kg/injection, schedule: Q01DX009 (ip), vehicle: saline) was 90 % of control and the T/C (dose: 20.0 mg/kg/injection, schedule: Q01DX001 (ip), vehicle: saline) was 90 % of control. The T/C (dose: 23.0 mg/kg/injection, schedule: Q01DX009 (ip), vehicle: saline) was 88 % of control and the T/C (dose: 40.0 mg/kg/injection, schedule: Q01DX001 (ip), vehicle: saline) was 95 % of control.
`O=C(Cl)C(Cl)(Cl)Cl` was tested, and the T/C (dose: 100.0 mg/kg/injection, schedule: Q04DX002 (sc), vehicle: olive oil, sesame oil, peanut oil) was 103 % of control, the T/C (dose: 200.0 mg/kg/injection, schedule: Q04DX002 (sc), vehicle: olive oil, sesame oil, peanut oil) was 116 % of control and the T/C (dose: 400.0 mg/kg/injection, schedule: Q04DX002 (sc), vehicle: olive oil, sesame oil, peanut oil) was 100 % of control.
`CCNc1nnnn1-c1ccccc1` was tested, and the T/C [1] was 97 % of control and the T/C [2] was 101 % of control.
`C=C1CC(=O)N(c2ccc(Cl)cc2)C1=O` was tested, and the T/C (dose: 25.0 mg/kg/injection, schedule: Q01DX001 (ip), vehicle: saline with Tween-80) was 93 % of control, the T/C (dose: 50.0 mg/kg/injection, schedule: Q01DX001 (ip), vehicle: saline with Tween-80) was 98 % of control and the T/C [3] was 97 % of control.
In the case of `c1ccc(NNCC[P+](c2ccccc2)(c2ccccc2)c2ccccc2)cc1`, the T/C (dose: 15.0 mg/kg/injection, schedule: Q01DX001 (ip), vehicle: carboxymethylcellulose (CMC)) is reported as 91 % of control.
`O=C(O)CC(Br)C(=O)c1ccccc1` (configuration not stated) was tested, and the T/C (dose: 12.5 mg/kg/injection, schedule: Q01DX009 (ip), vehicle: saline with Tween-80) was 91 % of control, the T/C (dose: 12.5 mg/kg/injection, schedule: Q04DX003 (ip), vehicle: saline with Tween-80) was 96 % of control and the T/C (dose: 25.0 mg/kg/injection, schedule: Q01DX009 (ip), vehicle: saline with Tween-80) was 95 % of control. The T/C (dose: 25.0 mg/kg/injection, schedule: Q04DX003 (ip), vehicle: saline with Tween-80) was 96 % of control, the T/C (dose: 50.0 mg/kg/injection, schedule: Q01DX009 (ip), vehicle: saline with Tween-80) was 95 % of control and the T/C (dose: 50.0 mg/kg/injection, schedule: Q04DX003 (ip), vehicle: saline with Tween-80) was 104 % of control.
`C=C1CC2(c3ccccc3)C(=O)C1(c1ccccc1)C(c1ccccc1)=C2c1ccccc1` (configuration not stated) was tested, and the T/C (dose: 50.0 mg/kg/injection, schedule: Q01DX001 (ip), vehicle: carboxymethylcellulose (CMC)) was 96 % of control, the T/C [4] was 90 % of control and the T/C (dose: 400.0 mg/kg/injection, schedule: Q01DX001 (ip), vehicle: carboxymethylcellulose (CMC)) was 89 % of control.
In the case of `CC(=O)OC1CCCCC1NC(=O)N(CCCl)N=O` (configuration not stated), the T/C (dose: 27.0 mg/kg/injection, schedule: Q01DX001 (ip), vehicle: carboxymethylcellulose (CMC)) is reported as 333 % of control, the T/C (dose: 40.0 mg/kg/injection, schedule: Q01DX001 (ip), vehicle: carboxymethylcellulose (CMC)) is reported as 423 % of control and the T/C (dose: 60.0 mg/kg/injection, schedule: Q01DX001 (ip), vehicle: carboxymethylcellulose (CMC)) is reported as 422 % of control. For the same molecule, the T/C (dose: 90.0 mg/kg/injection, schedule: Q01DX001 (ip), vehicle: carboxymethylcellulose (CMC)) was 170 % of control.
For `CCCCCCCCCCCCN1CCC(=O)NC1=O`, the T/C [5] was 100 % of control and the T/C [6] was 97 % of control.
In the case of `C/C=C1/CN(C)C2Cc3c([nH]c4ccccc34)C(c3cc4[nH]c5c(c4cc3OC)CCN3CC4CC(C(C)O)C3C5(C(=O)OC)C4)CC1C2C(=O)OC` (configuration not stated), the T/C (dose: 10.0 mg/kg/injection, schedule: Q01DX Z (ip), vehicle: other) is reported as 97 % of control, the T/C (dose: 20.0 mg/kg/injection, schedule: Q01DX Z (ip), vehicle: other) is reported as 93 % of control and the T/C (dose: 30.0 mg/kg/injection, schedule: Q01DX Z (ip), vehicle: other) is reported as 90 % of control. For the same molecule, the T/C (dose: 30.0 mg/kg/injection, schedule: Q02DX Z (ip), vehicle: other) was 104 % of control, the T/C (dose: 40.0 mg/kg/injection, schedule: Q01DX Z (ip), vehicle: other) was 95 % of control and the T/C (dose: 40.0 mg/kg/injection, schedule: Q01DX Z (ip), vehicle: water) was 90 % of control. For the same molecule, the T/C (dose: 40.0 mg/kg/injection, schedule: Q02DX Z (ip), vehicle: other) was 103 % of control, the T/C (dose: 60.0 mg/kg/injection, schedule: Q02DX Z (ip), vehicle: other) was 102 % of control and the T/C (dose: 80.0 mg/kg/injection, schedule: Q01DX Z (ip), vehicle: water) was 94 % of control. For the same molecule, the T/C (dose: 80.0 mg/kg/injection, schedule: Q02DX Z (ip), vehicle: other) was 95 % of control.
For `COc1ccccc1OCCOCCN(C/C=C(\C)CCC=C(C)C)C/C=C(\C)CCC=C(C)C`, the T/C (dose: 50.0 mg/kg/injection, schedule: Q01DX009 (ip), vehicle: saline) was 100 % of control, the T/C (dose: 100.0 mg/kg/injection, schedule: Q01DX009 (ip), vehicle: saline) was 96 % of control and the T/C [7] was 102 % of control. The T/C [8] was 98 % of control.
With `Cc1csc(NC(=O)C2C3CCC(O3)C2C(=O)O)n1` (configuration not stated) the T/C (dose: 5.0 mg/kg/injection, schedule: Q01DX001 (ip), vehicle: carboxymethylcellulose (CMC)) was 95 % of control and the T/C (dose: 10.0 mg/kg/injection, schedule: Q01DX001 (ip), vehicle: carboxymethylcellulose (CMC)) was 101 % of control.
With `CC(C)N=Cc1cc(I)cc(I)c1O.CC(C)N=Cc1cc(I)cc(I)c1O.[Co]` the T/C [9] was 88 % of control, the T/C [10] was 94 % of control and the T/C [11] was 102 % of control.
With `CC1CCCN(C(=O)Nc2cccc(Cl)c2Cl)C1` (configuration not stated) the T/C [12] was 87 % of control, the T/C [13] was 92 % of control and the T/C [14] was 96 % of control.
`Cc1c(Cl)c(Cl)c(C)c(Cl)c1Cl` was tested, and the T/C [12] was 86 % of control, the T/C [7] was 95 % of control and the T/C [13] was 89 % of control. For the same molecule, the T/C [8] was 101 % of control, the T/C [14] was 87 % of control and the T/C [15] was 93 % of control.
For `O=[N+]([O-])c1ccc(NC(c2ccccc2)c2ccc3cccnc3c2O)cc1` (configuration not stated), the T/C [1] was 89 % of control, the T/C [2] was 95 % of control and the T/C (dose: 400.0 mg/kg/injection, schedule: Q01DX001 (ip), vehicle: saline) was 91 % of control.
For `C(=C\n1ccnc1)/c1ccccc1`, the T/C (dose: 100.0 mg/kg/injection, schedule: Q04DX003 (ip), vehicle: gum acacia) was 97 % of control and the T/C (dose: 200.0 mg/kg/injection, schedule: Q04DX003 (ip), vehicle: gum acacia) was 87 % of control.
For `CCNc1nnnn1CC`, the T/C [9] was 101 % of control, the T/C [10] was 98 % of control and the T/C [11] was 101 % of control.
For `O=c1ccc2cc3cc(I)c(O)c(I)c3oc-2c1I`, the T/C [12] was 101 % of control and the T/C [13] was 99 % of control.
In the case of `N/N=C1\c2ccccc2-c2cc([N+](=O)[O-])ccc21`, the T/C (dose: 100.0 mg/kg/injection, schedule: Q01DX001 (ip), vehicle: carboxymethylcellulose (CMC)) is reported as 104 % of control and the T/C [4] is reported as 95 % of control.
With `N#Cc1ccc(Cc2ccc(C#N)cc2)cc1` the T/C [5] was 95 % of control, the T/C (dose: 100.0 mg/kg/injection, schedule: Q04DX003 (ip), vehicle: saline with Tween-80) was 95 % of control and the T/C [6] was 97 % of control. For the same molecule, the T/C (dose: 200.0 mg/kg/injection, schedule: Q04DX003 (ip), vehicle: saline with Tween-80) was 101 % of control, the T/C (dose: 400.0 mg/kg/injection, schedule: Q01DX009 (ip), vehicle: saline with Tween-80) was 100 % of control and the T/C (dose: 400.0 mg/kg/injection, schedule: Q04DX003 (ip), vehicle: saline with Tween-80) was 106 % of control.
For `CC(=O)CCc1c(C)nc(Nc2nc3cc(C)c(C)cc3[nH]2)nc1C`, the T/C [7] was 93 % of control, the T/C [8] was 96 % of control and the T/C [15] was 93 % of control.
With `O=c1ccsc(=S)[nH]1` the T/C [3] was 101 % of control, the T/C (dose: 200.0 mg/kg/injection, schedule: Q01DX001 (ip), vehicle: saline with Tween-80) was 104 % of control and the T/C (dose: 400.0 mg/kg/injection, schedule: Q01DX001 (ip), vehicle: saline with Tween-80) was 97 % of control.
